Patent publication US20230055321A1, “PYRIMIDOPYRROLE SPIRO COMPOUNDS AND DERIVATIVES THEREOF AS DNA-PK INHIBITORS” (MEDSHINE DISCOVERY INC., priority 2019, published 2023)
Read-outs that look alike come from different tables or passages of the source. One block for each molecule: values may come before it.

Tests used:
[1] = molecular target: Human-derived DNA-PK (Homo sapiens, UniProt P78527); assay: DNA-dependent protein kinase (DNA-PK) inhibitory activity screening experiment (Eurofins, HTRF); type: biochemical; conditions: 50 nM GST-cMyc-p53, 30 minutes at room temperature
Experimental: Experimental Method (Eurofins Pharma Discovery Service) DNA-PK (h) was incubated in assay buffer containing 50 nM GST-cMyc-p53 and Mg/ATP (according to the required concentration). The reaction was initiated by adding Mg/ATP mixture. After 30 minutes of incubation at room temperature, the reaction was stopped by the addition of stop solution containing EDTA. Finally, detection buffer (containing labeled anti-GST monoclonal antibody and europium-labeled anti-Ser15 antibody against phosphorylated p53) was added.

[2] = Pharmacokinetic evaluation in mice, plasma, IV and PO; type: in vivo; conditions: Balb/c male mice; for Tlast / AUC(0-t) / C0 / clearance / half-life / Vd / Cmax / Tmax / AUC0-last / T1/2: plasma; for F: PO (2 mg/kg) vs IV (0.4 mg/kg); for Vd: read-out: Vdss
Experimental: The test compound was mixed with 10% dimethyl sulfoxide/50% polyethylene glycol 200/40% water, vortexed and sonicated to prepare a nearly clear solution of 0.08 mg/mL, which was filtered with a microporous membrane for use. Balb/c male mice of 18 to 20 grams were selected, and the candidate compound solution was administered intravenously at a dose of 0.4 mg/kg. The test compound was mixed with 10% dimethyl sulfoxide/50% polyethylene glycol 200/40% water, vortexed and sonicated to prepare a nearly clear solution of 0.2 mg/mL, which was filtered with a microporous membrane for use. Balb/c male mice of 18 to 20 grams were selected, and the candidate compound solution was orally administered at a dose of 2 mg/kg. Whole blood was collected for a certain period of time, and plasma was prepared, then drug concentration was analyzed by LC-MS/MS method, and pharmacokinetic parameters were calculated by Phoenix WinNonlin software (Pharsight, USA).
IV: intravenous administration; PO: oral administration; C0: instantaneous required concentration after intravenous injection; Cmax: maximum blood drug concentration after administration; Tmax: time required to reach the peak drug concentration after administration; T1/2: time required for the blood drug concentration to decrease by half; Vdss: apparent volume of distribution, refers to the proportional constant of the drug dose in vivo and the blood drug concentration when the drug reaches a dynamic equilibrium in vivo. Cl: clearance rate, refers to the apparent volume of distribution of the drug cleared in vivo per unit time; Tlast: time at the last detection point; AUC0-last: area under the drug-time curve, refers to the area surrounded by the blood drug concentration curve to the time axis; F: a measure of the speed and degree of drug absorption into the blood circulation, which is an important index for evaluating the degree of drug absorption.

[3] = ATP: 10 μM, read-out: DNA-PK kinase inhibitory activity IC50
[4] = mouse, PO (2 mg/kg), read-out: Tmax

- IC50 [1, 3]: 10 nM
SMILES: COC1CCC2(CC1)C(=O)N(C)c1cnc(Nc3cn4ncnc4cc3C)nc12 (single isomer, unassigned) [Compound 3]

- IC50 [1, 3]: 4 nM
SMILES: COC1CCC2(CC1)C(=O)N(C)c1cnc(Nc3cn4ncnc4cc3C)nc12 (single isomer, unassigned) [Compound 4]

- IC50 [1, 3]: 4 nM
SMILES: Cc1cc2ncnn2cc1Nc1ncc2c(n1)C1(CCC(C(F)(F)F)CC1)C(=O)N2C (single isomer, unassigned) [Compound 18]

- IC50 [1, 3]: 7 nM
SMILES: Cc1cc2ncnn2cc1Nc1ncc2c(n1)C1(CCC(C(F)(F)F)CC1)C(=O)N2C (single isomer, unassigned) [Compound 19]

- IC50 [1, 3]: 11 nM
SMILES: Cc1cc2ncnn2cc1Nc1ncc2c(n1)C1(CCC(O)CC1)C(=O)N2C (single isomer, unassigned) [Compound 22]

- IC50 [1, 3]: 10 nM
SMILES: COC1(C)CCC2(CC1)C(=O)N(C)c1cnc(Nc3cn4ncnc4cc3C)nc12 (single isomer, unassigned) [Compound 27]

- IC50 [1, 3]: 3 nM
SMILES: COC1(C)CCC2(CC1)C(=O)N(C)c1cnc(Nc3cn4ncnc4cc3C)nc12 (single isomer, unassigned) [Compound 28]

- IC50 ([1]; DNA-PK kinase inhibitory activity IC50, ATP: 10 μM): 39 nM
SMILES: Cc1cc2ncnn2cc1Nc1ncc2c(n1)C1(CCOCC1)C(=O)N2C [Compound 1]

- IC50 [1, 3]: 6 nM
SMILES: Cc1cc2ncnn2cc1Nc1ncc2c(n1)C1(CCCCC1)C(=O)N2C [Compound 2]

- IC50 [1, 3]: 16 nM
SMILES: Cc1cc2ncnn2cc1Nc1ncc2c(n1)C1(CCCOCC1)C(=O)N2C (stereo not shown) [Compound 5]

- IC50 [1, 3]: 6 nM
SMILES: CC(=O)N1CCC2(CC1)C(=O)N(C)c1cnc(Nc3cn4ncnc4cc3C)nc12 [Compound 6]

- IC50 [1, 3]: 25 nM
SMILES: Cc1cc2ncnn2cc1Nc1ncc2c(n1)C1(CCN(C)CC1)C(=O)N2C [Compound 7]

- IC50 [1, 3]: 4 nM
SMILES: Cc1cc2ncnn2cc1Nc1ncc2c(n1)C1(CCN(CC(F)(F)F)CC1)C(=O)N2C [Compound 8]

- Tlast ([2]; IV (0.4 mg/kg)): 2 h
- F [2]: 74.5%
- Tlast ([2]; PO (2 mg/kg)): 4 h
- AUC(0-t) ([2]; mouse, IV (0.4 mg/kg)): 0.311 µM·h
- C0 ([2]; mouse, IV (0.4 mg/kg)): 871 nM
- clearance ([2]; mouse, IV (0.4 mg/kg)): 53.4 mL/min/kg
- half-life ([2]; mouse, IV (0.4 mg/kg)): 14.5 min
- Vd ([2]; mouse, IV (0.4 mg/kg)): 1.07 L/kg
- AUC(0-t) ([2]; mouse, PO (2 mg/kg)): 1.16 µM·h
- Cmax ([2]; mouse, PO (2 mg/kg)): 1080 nM
- half-life ([2]; mouse, PO (2 mg/kg)): 28.7 min
- Tmax [2, 4]: 30 min
- IC50 [1, 3]: 3 nM
SMILES: Cc1cc2ncnn2cc1Nc1ncc2c(n1)C1(CCC(F)(F)CC1)C(=O)N2C [Compound 9]

- IC50 [1, 3]: 7 nM
SMILES: Cc1cc2ncnn2cc1Nc1ncc2c(n1)C1(CC=C(F)CC1)C(=O)N2C (stereo not shown) [Compound 10]

- Tlast ([2]; IV (0.4 mg/kg)): 2 h
- F [2]: 73.7%
- Tlast ([2]; PO (2 mg/kg)): 4 h
- AUC(0-t) ([2]; mouse, IV (0.4 mg/kg)): 0.349 µM·h
- C0 ([2]; mouse, IV (0.4 mg/kg)): 1250 nM
- clearance ([2]; mouse, IV (0.4 mg/kg)): 47.2 mL/min/kg
- half-life ([2]; mouse, IV (0.4 mg/kg)): 14.5 min
- Vd ([2]; mouse, IV (0.4 mg/kg)): 0.855 L/kg
- AUC(0-t) ([2]; mouse, PO (2 mg/kg)): 1.29 µM·h
- Cmax ([2]; mouse, PO (2 mg/kg)): 1220 nM
- half-life ([2]; mouse, PO (2 mg/kg)): 29.6 min
- Tmax [2, 4]: 30 min
- IC50 [1, 3]: 1 nM
SMILES: Cc1cc2ncnn2cc1Nc1ncc2c(n1)C1(CCC3(CCC3)CC1)C(=O)N2C [Compound 11]

- AUC0-last ([2]; IV (0.4 mg/kg)): 0.358 µM·h
- T1/2 ([2]; IV (0.4 mg/kg)): 12.2 min
- Tlast ([2]; IV (0.4 mg/kg)): 1 h
- F [2]: 114%
- AUC0-last ([2]; PO (2 mg/kg)): 2.036 µM·h
- Cmax ([2]; PO (2 mg/kg)): 1860 nM
- T1/2 ([2]; PO (2 mg/kg)): 29.5 min
- Tlast ([2]; PO (2 mg/kg)): 4 h
- Tmax ([2]; PO (2 mg/kg)): 30 min
- C0 ([2]; mouse, IV (0.4 mg/kg)): 1280 nM
- clearance ([2]; mouse, IV (0.4 mg/kg)): 45.8 mL/min/kg
- Vd ([2]; mouse, IV (0.4 mg/kg)): 0.794 L/kg
- IC50 [1, 3]: 1 nM
SMILES: Cc1cc2ncnn2cc1Nc1ncc2c(n1)C1(CCC(C)(C)CC1)C(=O)N2C [Compound 12]

- IC50 [1, 3]: 6 nM
SMILES: Cc1cc2ncnn2cc1Nc1ncc2c(n1)C1(CCC3(CC1)COC3)C(=O)N2C [Compound 13]

- IC50 [1, 3]: 11 nM
SMILES: CON=C1CCC2(CC1)C(=O)N(C)c1cnc(Nc3cn4ncnc4cc3C)nc12 (stereo not shown) [Compound 14]

- AUC0-last ([2]; IV (0.4 mg/kg)): 0.454 µM·h
- T1/2 ([2]; IV (0.4 mg/kg)): 15.2 min
- Tlast ([2]; IV (0.4 mg/kg)): 2 h
- F [2]: 83%
- AUC0-last ([2]; PO (2 mg/kg)): 1.882 µM·h
- T1/2 ([2]; PO (2 mg/kg)): 59.8 min
- Tlast ([2]; PO (2 mg/kg)): 8 h
- Tmax ([2]; PO (2 mg/kg)): 15 min
- C0 ([2]; mouse, IV (0.4 mg/kg)): 1230 nM
- clearance ([2]; mouse, IV (0.4 mg/kg)): 37.6 mL/min/kg
- Vd ([2]; mouse, IV (0.4 mg/kg)): 0.853 L/kg
- Cmax ([2]; mouse, PO (2 mg/kg)): 1640 nM
- IC50 [1, 3]: 4 nM
SMILES: Cc1cc2ncnn2cc1Nc1ncc2c(n1)C1(CCC3(CC3)CC1)C(=O)N2C [Compound 15]

- IC50 [1, 3]: 39 nM
SMILES: Cc1cc2ncnn2cc1Nc1ncc2c(n1)C1(CC1)C(=O)N2C [Compound 16]

- IC50 [1, 3]: 7 nM
SMILES: Cc1cc2ncnn2cc1Nc1ncc2c(n1)C1(CCCC1)C(=O)N2C [Compound 17]

- IC50 [1, 3]: 15 nM
SMILES: Cc1cc2ncnn2cc1Nc1ncc2c(n1)C1(CCC(=O)CC1)C(=O)N2C [Compound 20]

- IC50 [1, 3]: 8 nM
SMILES: Cc1cc2ncnn2cc1Nc1ncc2c(n1)C1(CCSCC1)C(=O)N2C [Compound 23]

- IC50 [1, 3]: 84 nM
SMILES: Cc1cc2ncnn2cc1Nc1ncc2c(n1)C1(CCS(=O)(=O)CC1)C(=O)N2C [Compound 24]
